The results in this text go back to US20090312349A1, “ANTI-INFLAMMATORY MEDICAMENTS” (priority 2004, published 2009).

Assay type in all cases: biochemical
The target in experiment [1] is phosphorylated p-38-alpha kinase (Homo sapiens, UniProt Q16539). The experiment can be described thus: P-38 alpha kinase assay P1. The note with it: Method P1; 2 h pre-incubation before ATP.
The target in another experiment is KDR kinase (Homo sapiens, UniProt P35968, DEL940-989/E990V). The experiment can be described thus: KDR kinase assay K1. The note with it: read-out: Results, % @ concentration μM, Method K1; @ 10 μM. How it is done: (§1) IC50 values were calculated from a series of percent inhibition values determined at a range of inhibitor concentrations using software routines as implemented in the GraphPad Prism software package.
Sequence of KDR kinase (P35968 with tags, fused parts or gaps DEL940-989/E990V): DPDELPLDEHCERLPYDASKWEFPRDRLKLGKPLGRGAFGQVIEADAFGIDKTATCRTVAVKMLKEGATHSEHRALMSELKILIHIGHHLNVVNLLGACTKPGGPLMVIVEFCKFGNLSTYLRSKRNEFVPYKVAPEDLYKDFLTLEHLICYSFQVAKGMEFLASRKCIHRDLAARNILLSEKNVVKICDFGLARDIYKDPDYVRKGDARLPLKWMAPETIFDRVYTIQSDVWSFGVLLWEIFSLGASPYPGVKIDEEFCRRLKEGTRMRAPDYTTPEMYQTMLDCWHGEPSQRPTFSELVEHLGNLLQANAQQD

Experiment [2] addresses T1, phospho p-38 alpha kinase (Homo sapiens, UniProt Q16539).
T1 construct: purchased Panvera
The experiment can be described thus: P-38 alpha kinase assay (spectrophotometric, pyruvate kinase/lactate dehydrogenase coupled). The settings on record: Table 5; for IC50: assay not named, read-out: uM.

In the next experiment the target is T2, Abl kinase (Homo sapiens, UniProt P00519).
T2 sequence (P00519 229-512): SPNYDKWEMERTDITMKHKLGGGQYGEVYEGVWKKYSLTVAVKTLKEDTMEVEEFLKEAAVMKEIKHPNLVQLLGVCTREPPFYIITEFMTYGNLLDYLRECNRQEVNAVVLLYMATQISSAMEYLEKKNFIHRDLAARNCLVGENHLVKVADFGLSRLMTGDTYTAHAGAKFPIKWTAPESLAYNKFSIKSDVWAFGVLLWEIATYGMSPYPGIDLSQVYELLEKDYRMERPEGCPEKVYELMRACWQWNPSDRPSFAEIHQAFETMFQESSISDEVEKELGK
The experiment can be described thus: Abl kinase assay A1. The settings on record: for inhibition at 10 µM: read-out: Results, % @ concentration μM, Method A1. How it is done:
as §1

A further experiment deals with B-Raf(V599E) kinase (Homo sapiens, UniProt P15056, V600E). Description: B-Raf(V599E) kinase assay B1. The note with it: for IC50: Method B1, construct 1. How it is done:
The test compounds were incubated with the reaction mixture at 30° C. for 2 h. […] The reaction rate was calculated using the 1.5 h to 2.5 h time frame. […] IC50 values were calculated from a series of percent inhibition values determined at a range of inhibitor concentrations using software routines as implemented in the GraphPad Prism software package.

The mark [3] stands for this setting: read-out: Results, % @ concentration μM.

T1 sequence (Q16539 whole entry): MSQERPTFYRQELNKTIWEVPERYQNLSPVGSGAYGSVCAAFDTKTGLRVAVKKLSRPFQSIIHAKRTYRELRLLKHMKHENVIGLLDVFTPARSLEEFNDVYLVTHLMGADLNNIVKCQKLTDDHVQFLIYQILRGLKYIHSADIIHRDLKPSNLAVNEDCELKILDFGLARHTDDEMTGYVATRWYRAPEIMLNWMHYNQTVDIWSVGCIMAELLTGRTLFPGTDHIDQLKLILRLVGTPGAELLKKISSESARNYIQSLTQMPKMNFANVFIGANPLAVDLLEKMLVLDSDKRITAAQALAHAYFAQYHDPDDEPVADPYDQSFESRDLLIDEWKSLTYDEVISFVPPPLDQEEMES
Sequence of B-Raf(V599E) kinase (P15056 with tags, fused parts or gaps V600E): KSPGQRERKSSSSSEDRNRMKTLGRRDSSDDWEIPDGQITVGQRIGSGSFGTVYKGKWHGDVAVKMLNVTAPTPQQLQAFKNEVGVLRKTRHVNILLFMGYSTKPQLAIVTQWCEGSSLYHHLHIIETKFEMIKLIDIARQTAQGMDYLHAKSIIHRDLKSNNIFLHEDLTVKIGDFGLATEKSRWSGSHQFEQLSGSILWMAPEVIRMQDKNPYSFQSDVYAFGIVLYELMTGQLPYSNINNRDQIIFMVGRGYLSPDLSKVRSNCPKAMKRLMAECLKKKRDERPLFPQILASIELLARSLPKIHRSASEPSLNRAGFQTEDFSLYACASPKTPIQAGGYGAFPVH
Sequence of phosphorylated p-38-alpha kinase (Q16539 1-360 isoform Q16539-2): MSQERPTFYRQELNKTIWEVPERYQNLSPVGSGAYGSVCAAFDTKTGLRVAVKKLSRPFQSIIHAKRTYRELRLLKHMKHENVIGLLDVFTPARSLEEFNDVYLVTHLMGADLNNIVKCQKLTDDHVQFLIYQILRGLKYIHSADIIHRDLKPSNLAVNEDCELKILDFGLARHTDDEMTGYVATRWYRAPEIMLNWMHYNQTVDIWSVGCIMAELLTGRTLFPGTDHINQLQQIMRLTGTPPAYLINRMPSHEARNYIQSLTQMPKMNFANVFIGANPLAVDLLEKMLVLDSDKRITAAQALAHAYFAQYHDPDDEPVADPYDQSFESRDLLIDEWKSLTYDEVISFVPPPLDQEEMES

Consider `O=C(O)Cc1ccc(-n2nc(-c3ccccc3F)cc2NC(=O)Nc2cccc(Cl)c2Cl)cc1` [Example 440, 2-(4-(5-(3-(2,3-dichlorophenyl)ureido)-3-(2-fluorophenyl)-1H-pyrazol-1-yl)phenyl)acetic acid], for which the IC50 in experiment [1] is 0.009 µM; in experiment [2] it was 0.92 µM. Moreover, the inhibition at 10 µM at KDR kinase worked out at 56%.
Take `O=C(Nc1cccc(Cl)c1Cl)Nc1cc(-c2ccccc2F)nn1-c1cccc(CO)c1` [Example 485, 1-(2,3-dichlorophenyl)-3-(3-(2-fluorophenyl)-1-(3-(hydroxymethyl)phenyl)-1H-pyrazol-5-yl)urea]: the inhibition at 10 µM at KDR kinase was 79%. Besides, the IC50 in experiment [2] amounted to 0.05 µM.
On to `NC(=O)Cc1cccc(-n2nc(-c3ccsc3)cc2NC(=O)Nc2cccc(Cl)c2Cl)c1` [Example 452, 1-(1-(3-(2-amino-2-oxoethyl)phenyl)-3-(thiophen-3-yl)-1H-pyrazol-5-yl)-3-(2,3-dichlorophenyl)urea], for which the inhibition at 10 µM on Abl kinase was 37%. The compound further came in with an IC50 in experiment [1] of 0.006 µM. Besides, on B-Raf(V599E) kinase (setting [3]), the inhibition at 1 µM is 45%.
Turning to `O=C(Nc1cccc(Cl)c1Cl)Nc1cc(-c2ccccc2)nn1-c1cccc(CO)c1` [Example 484, 1-(2,3-dichlorophenyl)-3-(1-(3-(hydroxymethyl)phenyl)-3-phenyl-1H-pyraol-5-yl)urea], the IC50 in experiment [1] turned out to be 0.009 µM; on B-Raf(V599E) kinase it was 7.4 µM. Also, at KDR kinase, the inhibition at 10 µM came out at 37%.
`O=C(Cc1cccc(-n2nc(-c3cccs3)cc2NC(=O)Nc2cccc(Cl)c2Cl)c1)NCCO` [Example 457, 1-(2,3-dichlorophenyl)-3-(1-(3-(2-(2-hydroxyethylamino)-2-oxoethyl)phenyl)-3-(thiophen-2-yl)-1H-pyrazol-5-yl)urea]: the IC50 in experiment [1] came out at 0.008 µM; in experiment [2] it was 1.1 µM. Moreover, on KDR kinase, the inhibition at 10 µM was 31%.
Consider `CC(C)(C)c1cc(NC(=O)Nc2cccc(-c3cccnc3)c2)n(-c2cccc(CC(N)=O)c2)n1` [Example 507, 1-(1-(3-(2-amino-2-oxoethyl)phenyl)-3-tert-butyl-1H-pyrazol-5-yl)-3-(3-(pyridin-3-yl)phenyl)urea], for which the IC50 stood at 23.3 µM on Abl kinase (Method A1, read-out: Results, μM (IC50)); 0.18 µM in experiment [1]; 0.035 µM on B-Raf(V599E) kinase; 0.007 µM in experiment [2].
On to `O=C(Cc1cccc(-n2nc(-c3ccccc3F)cc2NC(=O)Nc2cccc(Cl)c2Cl)c1)NCCO` [Example 456, 1-(2,3-dichlorophenyl)-3-(3-(2-fluorophenyl)-1-(3-(2-(2-hydroxyethylamino)-2-oxoethyl)phenyl)-1H-pyrazol-5-yl)urea], for which the IC50 amounted to 0.015 µM in experiment [1] and 0.04 µM in experiment [2]. Moreover, the inhibition at 10 µM at KDR kinase turned out to be 53%.
In experiment [1], `NC(=O)Cc1cccc(-n2nc(-c3ccccc3F)cc2NC(=O)Nc2cccc(Cl)c2Cl)c1` [Example 450, 1-(1-(3-(2-amino-2-oxoethyl)phenyl)-3-(2-fluorophenyl)-1H-pyrazol-5-yl)-3-(2,3-dichlorophenyl)urea] showed an IC50 of 0.013 µM. Moreover, the inhibition at 10 µM on KDR kinase was 45%. The “% @ concentration, uM” value in experiment [2] (@ 1 uM) is listed as 89%; in experiment [2] (@ 10 uM) it was 192%.
Regarding `NC(=O)Cc1ccc(-n2nc(-c3ccsc3)cc2NC(=O)Nc2cccc(Cl)c2Cl)cc1` [Example 469, 1-(1-(4-(2-amino-2-oxoethyl)phenyl)-3-(thiophen-3-yl)-1H-pyrazol-5-yl)-3-(2,3-dichlorophenyl)urea], the inhibition at 10 µM at Abl kinase amounted to 22%. The compound also showed an IC50 in experiment [1] of 0.009 µM. Further, the inhibition at 1 µM on B-Raf(V599E) kinase (setting [3]) came out at 43%.
`O=C(Cc1cccc(-n2nc(-c3ccccc3F)cc2NC(=O)Nc2cccc(Cl)c2Cl)c1)NC(CO)CO` [Example 461, 1-(2,3-dichlorophenyl)-3-(1-(3-(2-(1,3-dihydroxypropan-2-ylamino)-2-oxoethyl)phenyl)-3-(2-fluorophenyl)-1H-pyrazol-5-yl)urea]: the IC50 in experiment [1] amounted to 0.03 µM; in experiment [2], 0.017 µM. The inhibition at 10 µM was 33% on KDR kinase and 28% at B-Raf(V599E) kinase (setting [3]).
Consider `CC(C(N)=O)c1cccc(-n2nc(-c3ccsc3)cc2NC(=O)Nc2cccc(Cl)c2Cl)c1` (stereo not shown) [Example 453, 1-(1-(3-(1-amino-1-oxopropan-2-yl)phenyl)-3-(thiophen-3-yl)-1H-pyrazol-5-yl)-3-(2,3-dichlorophenyl)urea], for which the inhibition at 10 µM at KDR kinase is 34%.
For the compound `O=C(Cc1cccc(-n2nc(-c3cccs3)cc2NC(=O)Nc2cccc(Cl)c2Cl)c1)NCC(O)CO` (stereo not shown) [Example 460, 1-(2,3-dichlorophenyl)-3-(1-(3-(2-(2,3-dihydroxypropylamino)-2-oxoethyl)phenyl)-3-(thiophen-2-yl)-1H-pyrazol-5-yl)urea], the IC50 in experiment [1] is 0.008 µM; at B-Raf(V599E) kinase, 2.4 µM. Moreover, the inhibition at 10 µM on KDR kinase was determined as 26%.
As to `O=C(Cc1ccc(-n2nc(-c3ccccc3)cc2NC(=O)Nc2cccc(Cl)c2Cl)cc1)NCCO` [Example 470, 1-(2,3-dichlorophenyl)-3-(1-(4-(2-(2-hydroxyethylamino)-2-oxoethyl)phenyl)-3-phenyl-1H-pyrazol-5-yl)urea], the inhibition at 10 µM at Abl kinase was 15%. In addition, the IC50 in experiment [2] amounted to 0.005 µM.
Take `O=C(O)Cc1ccc(-n2nc(-c3ccccc3)cc2NC(=O)Nc2cccc(Cl)c2Cl)cc1` [Example 438, 2-(4-(5-(3-(2,3-dichlorophenyl)ureido)-3-phenyl-1H-pyrazol-1-yl)phenyl)acetic acid]: the inhibition at 10 µM on KDR kinase is 39%. In addition, the IC50 in experiment [2] is 1.3 µM.
As for `COC(=O)Cc1ccc(-n2nc(-c3ccsc3)cc2NC(=O)Nc2cccc(Cl)c2Cl)cc1` [Example 445, methyl 2-(4-(5-(3-(2,3-dichlorophenyl)ureido)-3-(thiophen-3-yl)-1H-pyrazol-1-yl)phenyl)acetate], the inhibition at 10 µM on Abl kinase stood at 30%. Besides, the inhibition at 1 µM at B-Raf(V599E) kinase (setting [3]) was 39%.
For the compound `O=C(O)Cc1cccc(-n2nc(-c3ccc(F)cc3)cc2NC(=O)Nc2cccc(Cl)c2Cl)c1` [Example 431, 2-(3-(5-(3-(2,3-dichlorophenyl)ureido)-3-(4-fluorophenyl)-1H-pyrazol-1-yl)phenyl)acetic acid], the inhibition at 10 µM at Abl kinase amounted to 29%.
`O=C(O)Cc1ccc(-n2nc(-c3cccs3)cc2NC(=O)Nc2cccc(Cl)c2Cl)cc1` [Example 442, 2-(4-(5-(3-(2,3-dichlorophenyl)ureido)-3-(thiophen-2-yl)-1H-pyrazol-1-yl)phenyl)acetic acid]: the inhibition at 10 µM at KDR kinase amounted to 25%. In addition, on B-Raf(V599E) kinase (setting [3]), the inhibition at 1 µM was found to be 24%. In experiment [2], the IC50 came to 3.01 µM.
In experiment [1], `CC(C(=O)O)c1ccc(-n2nc(-c3cccs3)cc2NC(=O)Nc2cccc(Cl)c2Cl)cc1` (stereo not shown) [Example 443, 2-(4-(5-(3-(2,3-dichlorophenyl)ureido)-3-(thiophen-2-yl)-1H-pyrazol-1-yl)phenyl)propanoic acid] came in with an IC50 of 0.03 µM. The inhibition at 10 µM at KDR kinase came out at 33%. The inhibition at 1 µM on B-Raf(V599E) kinase (setting [3]) is 20%.
As to `O=C(Cc1cccc(-n2nc(-c3cccs3)cc2NC(=O)Nc2cccc(Cl)c2Cl)c1)NC(CO)CO` [Example 462, 1-(2,3-dichlorophenyl)-3-(1-(3-(2-(1,3-dihydroxypropan-2-ylamino)-2-oxoethyl)phenyl)-3-(thiophen-2-yl)-1H-pyrazol-5-yl)urea], in experiment [1], the IC50 is 0.008 µM. Further, at KDR kinase, the inhibition at 10 µM turned out to be 25%. Moreover, the inhibition at 1 µM at B-Raf(V599E) kinase (setting [3]) was 43%.
As for `O=C(Cc1cccc(-n2nc(-c3cccc(F)c3)cc2NC(=O)Nc2cccc(Cl)c2Cl)c1)NCCO` [Example 455, 1-(2,3-dichlorophenyl)-3-(3-(3-fluorophenyl)-1-(3-(2-(2-hydroxyethylamino)-2-oxoethyl)phenyl)-1H-pyrazol-5-yl)urea], the IC50 in experiment [1] turned out to be 0.018 µM; in experiment [2] it was 0.1 µM. Further, the inhibition at 1 µM on B-Raf(V599E) kinase (setting [3]) was found to be 30%.
For `NC(=O)Cc1cccc(-n2nc(-c3cccc(F)c3)cc2NC(=O)Nc2cccc(Cl)c2Cl)c1` [Example 449, 1-(1-(3-(2-amino-2-oxoethyl)phenyl)-3-(3-fluorophenyl)-1H-pyrazol-5-yl)-3-(2,3-dichlorophenyl)urea], the IC50 in experiment [1] amounted to 0.022 µM. Besides, at KDR kinase, the inhibition at 10 µM was determined as 33%.
Regarding `NC(=O)Cc1cccc(-n2nc(-c3cccs3)cc2NC(=O)Nc2cccc(Cl)c2Cl)c1` [Example 451, 1-(1-(3-(2-amino-2-oxoethyl)phenyl)-3-(thiophen-2-yl)-1H-pyrazol-5-yl)-3-(2,3-dichlorophenyl)urea], the IC50 came to 0.008 µM in experiment [1] and 0.84 µM against B-Raf(V599E) kinase. Moreover, the “% @ concentration, uM” value in experiment [2] (@ 1 uM) amounted to 3% @1.
Regarding `O=C(Cc1cccc(-n2nc(-c3ccccc3)cc2NC(=O)Nc2cccc(Cl)c2Cl)c1)NCCO` [Example 454, 1-(2,3-dichlorophenyl)-3-(1-(3-(2-(2-hydroxyethylamino)-2-oxoethyl)phenyl)-3-phenyl-1H-pyrazol-5-yl)urea], the inhibition at 10 µM at KDR kinase amounted to 27%.
